Data reported in patent publication US8541363B2, “Pyruvamide compounds as inhibitors of dust mite group 1 peptidase allergen and their use” (St George's Hosptial Medical School, priority 2010, dated 2013).
pIC50: −log10 of the molar value. Like-named read-outs stand apart in the source and are kept apart here.

Target: Der p 1 (Dermatophagoides pteronyssinus (European house dust mite), UniProt P08176)
Experiment: Der p 1 enzyme activity assay (FRET fluorogenic substrate)
Format: biochemical
[1] = threshold stated in text, read-out: Der p 1 IC50

Sequence of Der p 1 (P08176 99-320): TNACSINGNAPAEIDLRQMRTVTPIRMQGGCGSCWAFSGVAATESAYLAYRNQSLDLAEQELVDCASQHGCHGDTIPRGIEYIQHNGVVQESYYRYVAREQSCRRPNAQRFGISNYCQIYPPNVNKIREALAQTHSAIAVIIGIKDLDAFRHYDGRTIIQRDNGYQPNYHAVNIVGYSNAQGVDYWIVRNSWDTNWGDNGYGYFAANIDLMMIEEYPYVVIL

| Structure (SMILES) | pIC50 [1] | also measured |
| --- | --- | --- |
| CC(C)[C@H](NC(=O)[C@H](C)NC(=O)[C@H](Cc1ccccc1)N1Cc2ccccc2C1=O)C(=O)C(=O)NC1CCCCC1 [PVA-104] | > 7.70 | – |
| CC(C)[C@@H](NC(=O)[C@H](C)NC(=O)[C@@H](NC(=O)c1ccccc1)C(C)(C)C)C(=O)C(=O)NC1CCCCC1 [PVA-085] | – | pIC50 (Der p 1 IC50): > 6.70 |
| CC(C)[C@H](NC(=O)[C@H](C)NC(=O)[C@H](Cc1ccccc1)NC(=O)c1ccncc1)C(=O)C(=O)NCc1ccc(S(N)(=O)=O)cc1 [PVA-161] | > 7.70 | – |
| CC(C)[C@H](NC(=O)[C@H](C)NC(=O)[C@H](Cc1ccccc1)NC(=O)c1ccccc1)C(=O)C(=O)NCc1ccccc1 [PVA-009] | > 7.70 | – |
| CC(C)C(NC(=O)[C@H](C)NC(=O)[C@H](Cc1ccccc1)NC(=O)c1ccccc1)C(=O)C(=O)NCc1ccncc1 (some centres unmarked) [PVA-022] | > 6.70 | – |
| CC(C)[C@H](NC(=O)[C@H](C)NC(=O)[C@@H](NC(=O)C1CCN(C(C)C)CC1)C(C)(C)C)C(=O)C(=O)NCc1ccccc1 [PVA-172] | > 6.70 | – |
| CC(C)[C@H](NC(=O)[C@H](C)NC(=O)[C@@H](NC(=O)c1ccccc1)C(C)(C)C)C(=O)C(=O)N[C@H](C(=O)N1CCN(C)CC1)C(C)C [PVA-127] | > 6.70 | – |
| CC(C)[C@H](NC(=O)[C@H](C)NC(=O)[C@@H](Cc1ccc(F)cc1)NC(=O)c1ccccc1)C(=O)C(=O)NCc1ccccc1 [PVA-045] | > 6.70 | – |
| CC(C)[C@H](NC(=O)[C@H](C)NC(=O)[C@@H](NC(=O)c1ccccc1)C(C)(C)C)C(=O)C(=O)NCc1ccc(NC(N)=O)cc1 [PVA-194] | > 7.70 | – |
| CC(=O)Nc1cc(C(=O)N[C@@H](Cc2ccccc2)C(=O)N[C@@H](C)C(=O)N[C@H](C(=O)C(=O)NCc2ccccc2)C(C)C)ccn1 [PVA-060] | > 6.70 | – |
| C[C@H](NC(=O)[C@H](Cc1ccccc1)NC(=O)c1ccccc1)C(=O)NCC(=O)C(=O)NCc1ccccc1 [PVA-102] | > 6.70 | – |
| CC(C)[C@H](NC(=O)[C@H](C)NC(=O)[C@H](Cc1ccccc1)NC(=O)c1ccccc1)C(=O)C(=O)NC1CCCCC1 [PVA-003] | > 7.70 | – |
| CC(C)[C@H](NC(=O)[C@H](C)NC(=O)[C@H](Cc1ccccc1)NC(=O)c1cccc(OCCN2CCCC2)c1)C(=O)C(=O)NC1CCCCC1 [PVA-065] | > 6.70 | – |
| CC(C)[C@H](NC(=O)[C@H](C)NC(=O)[C@H](Cc1ccccc1)NC(=O)c1ccccc1)C(=O)C(=O)NCc1cccc(C(=O)O)c1 [PVA-081] | > 6.70 | – |
| CC(C)[C@H](NC(=O)[C@H](C)NC(=O)[C@@H](NC(=O)c1ccccc1)C(C)(C)C)C(=O)C(=O)NCC(=O)N1CCOCC1 [PVA-079] | > 7.70 | – |
| CC(C)[C@H](NC(=O)[C@H](C)NC(=O)[C@@H](NC(=O)c1ccccc1)C(C)(C)C)C(=O)C(=O)NCC(=O)N1CCc2ccccc2C1 [PVA-111] | – | pIC50 (Der p 1 IC50): > 7.70 |
| CC(C)[C@H](NC(=O)[C@H](C)NC(=O)[C@@H](NC(=O)c1ccccc1)C(C)(C)C)C(=O)C(=O)NC1CCC1 [PVA-203] | > 6.70 | – |
| CC(C)[C@H](NC(=O)[C@H](C)NC(=O)[C@@H](NC(=O)c1cccc(OCc2nccn2C)c1)C(C)(C)C)C(=O)C(=O)NC1CCCCC1 [PVA-075] | > 6.70 | – |
| CC(C)[C@H](NC(=O)[C@H](C)NC(=O)[C@@H](NC(=O)c1ccccc1)C(C)(C)C)C(=O)C(=O)N[C@H](C)c1ccccc1 [PVA-132] | > 7.70 | – |
| CC(C)[C@H](NC(=O)[C@H](C)NC(=O)[C@H](Cc1ccccc1)NC(=O)c1ccccc1)C(=O)C(=O)N[C@@H](C)C(=O)N1CCN(C)CC1 [PVA-094] | – | pIC50 (Der p 1 IC50): > 7.70 |
| CC(C)[C@H](NC(=O)[C@H](C)NC(=O)[C@@H](NC(=O)c1ccccc1)C(C)(C)C)C(=O)C(=O)NCC(=O)N1CCC(N(C)C)C1 (some centres unmarked) [PVA-105] | > 7.70 | – |
| CCCC[C@H](NC(=O)[C@H](C)NC(=O)[C@@H](NC(=O)c1ccccc1)C(C)(C)C)C(=O)C(=O)NC1CCCCC1 [PVA-037] | > 7.70 | pIC50 (Table 1, read-out: Der p 1 IC50): 8.11 |
| CC(C)[C@H](NC(=O)[C@H](C)NC(=O)[C@H](Cc1ccccc1)NC(=O)c1ccccc1)C(=O)C(=O)NCC(=O)N1CCCCC1 [PVA-067] | – | pIC50 (Der p 1 IC50): > 7.70 |
| CC(C)[C@H](NC(=O)[C@H](C)NC(=O)[C@@H](NC(=O)c1ccccc1)C(C)(C)c1ccccc1)C(=O)C(N)=O [PVA-143] | > 7.70 | – |
| CC(C)[C@H](NC(=O)[C@H](C)NC(=O)[C@@H](NC(=O)c1ccccc1)C(C)(C)C)C(=O)C(=O)NCc1ccc(F)cc1 [PVA-178] | > 7.70 | – |
| CC(C)[C@H](NC(=O)[C@H](C)NC(=O)[C@@H](NC(=O)c1ccnc2ccccc12)C(C)(C)C)C(=O)C(=O)NCC(=O)N1CCc2ccccc2C1 [PVA-186] | > 7.70 | – |
| CNC(=O)C(=O)[C@@H](NC(=O)[C@H](C)NC(=O)[C@@H](NC(=O)c1ccccc1)C(C)(C)C)C(C)C [PVA-117] | > 6.70 | – |
| CNS(=O)(=O)c1ccc(CNC(=O)C(=O)[C@@H](NC(=O)[C@H](C)NC(=O)[C@@H](N2Cc3ccccc3C2=O)C(C)(C)C)C(C)C)cc1 [PVA-208] | – | pIC50 (Der p 1 IC50): > 7.70 |
| CC(C)[C@H](NC(=O)[C@H](C)NC(=O)[C@@H](N1Cc2ccccc2C1=O)C(C)(C)C)C(=O)C(=O)NCC(=O)N1CCc2ccccc2C1 [PVA-212] | > 7.70 | – |
| CC(C)[C@H](NC(=O)[C@H](C)NC(=O)[C@H](Cc1ccccc1)NC(=O)c1ccncc1)C(=O)C(=O)NCc1ccccc1 [PVA-099] | > 7.70 | – |

Continued, in another order:

| pIC50 [1] | Structure (SMILES) | also measured |
| --- | --- | --- |
| > 6.70 | CC(C)[C@H](NC(=O)[C@H](C)NC(=O)[C@H](Cc1ccccc1)NC(=O)c1ccncc1)C(=O)C(=O)NC1CCCC1 [PVA-175] | – |
| > 6.70 | CC(C)[C@H](NC(=O)[C@H](C)NC(=O)[C@@H](NC(=O)c1cc[nH]c(=O)c1)C(C)(C)C)C(=O)C(=O)NCc1ccccc1 [PVA-114] | – |
| > 6.70 | COc1cccc(CNC(=O)C(=O)[C@@H](NC(=O)[C@H](C)NC(=O)[C@H](Cc2ccccc2)NC(=O)c2ccncc2)C(C)C)c1 [PVA-160] | – |
| > 6.70 | CC(=O)Nc1ccc(C(=O)N[C@H](C(=O)N[C@@H](C)C(=O)N[C@H](C(=O)C(=O)NCc2ccccc2)C(C)C)C(C)(C)C)cn1 [PVA-063] | – |
| > 6.70 | CC(C)[C@H](NC(=O)[C@H](C)NC(=O)[C@@H](NC(=O)c1ccccc1Oc1ccccc1)C(C)(C)C)C(=O)C(=O)NCc1ccccc1 [PVA-106] | – |
| > 6.70 | CC(C)[C@H](NC(=O)[C@H](C)NC(=O)C1(NC(=O)c2ccccc2)CCCCC1)C(=O)C(=O)NC1CCCCC1 [PVA-091] | – |
| > 6.70 | CC(C)[C@H](NC(=O)[C@H](C)NC(=O)[C@H](Cc1ccc(N2CCN(C)CC2)cc1)NC(=O)c1ccccc1)C(=O)C(=O)NCc1ccccc1 [PVA-198] | – |
| > 6.70 | CC(C)[C@H](NC(=O)[C@H](C)NC(=O)[C@@H](NC(=O)c1ccccc1)C(C)(C)C)C(=O)C(=O)NCc1ccc(Cl)cc1 [PVA-179] | – |
| > 7.70 | CC(C)[C@H](NC(=O)[C@H](C)NC(=O)[C@@H](NC(=O)c1ccncc1)C(C)(C)C)C(=O)C(=O)NCc1ccccc1 [PVA-128] | – |
| > 6.70 | CC(C)[C@H](NC(=O)[C@H](C)NC(=O)[C@@H](NC(=O)c1ccccc1)C(C)(C)C)C(=O)C(=O)NCc1ccc(C(C)(C)C)cc1 [PVA-180] | – |
| > 6.70 | CC(C)[C@H](NC(=O)[C@H](C)NC(=O)[C@@H](NC(=O)c1ccccc1)C(C)(C)C)C(=O)C(=O)N[C@H]1CCc2ccccc21 [PVA-110] | – |
| > 6.70 | CC(C)[C@H](NC(=O)[C@H](C)NC(=O)[C@H](Cc1ccccc1)NC(=O)c1ccncc1)C(=O)C(=O)NCC1CCN(C)CC1 [PVA-170] | – |
| > 5.70 | CCCCC(NC(=O)[C@H](C)NC(=O)[C@H](Cc1ccccc1)NC(=O)c1ccccc1)C(=O)C(=O)N1CCN(C)CC1 (some centres unmarked) [PVA-007] | – |
| > 6.70 | CC(C)[C@H](NC(=O)[C@H](C)NC(=O)[C@@H](NC(=O)c1ccccc1)C(C)(C)C)C(=O)C(=O)NCc1ccc(C(F)(F)F)cc1 [PVA-181] | – |
| > 7.70 | COc1ccc(CNC(=O)C(=O)[C@@H](NC(=O)[C@H](C)NC(=O)[C@@H](NC(=O)c2ccccc2)C(C)(C)C)C(C)C)cc1 [PVA-204] | – |
| > 6.70 | Cc1cc(CNC(=O)C(=O)[C@@H](NC(=O)[C@H](C)NC(=O)[C@@H](NC(=O)c2ccccc2)C(C)(C)C)C(C)C)no1 [PVA-126] | – |
| > 6.70 | CC(C)[C@H](NC(=O)[C@H](C)NC(=O)[C@@H](NC(=O)N1CCN(C)CC1)C(C)(C)C)C(=O)C(=O)NCc1ccccc1 [PVA-122] | – |
| > 7.70 | CC(C)[C@H](NC(=O)[C@H](C)NC(=O)[C@@H](NC(=O)c1ccnc2ccccc12)C12CC3CC(CC(C3)C1)C2)C(=O)C(=O)NCC(=O)N1CCN(C)CC1 [PVA-147] | – |
| > 6.70 | Cc1cc(CNC(=O)C(=O)[C@@H](NC(=O)[C@H](C)NC(=O)[C@@H](NC(=O)c2ccccc2)C(C)(C)C)C(C)C)n(C)n1 [PVA-168] | – |
| > 6.70 | CC(C)[C@H](NC(=O)[C@H](C)NC(=O)[C@@H](NC(=O)c1ccccc1)C(C)(C)C)C(=O)C(=O)NCc1cccc(Cl)c1 [PVA-191] | – |
| > 6.70 | CC(C)[C@H](NC(=O)[C@H](C)NC(=O)[C@H](Cc1ccccc1)NC(=O)c1n[nH]c2ccccc12)C(=O)C(=O)NCc1ccccc1 [PVA-113] | – |
| > 6.70 | CC(C)[C@H](NC(=O)[C@H](C)NC(=O)[C@@H](NC(=O)c1ccc(Cl)cc1)C(C)(C)C)C(=O)C(=O)NCc1ccccc1 [PVA-184] | – |
| > 6.70 | CC(=O)Nc1cc(C(=O)N[C@H](C(=O)N[C@@H](C)C(=O)N[C@H](C(=O)C(=O)NC2CCCCC2)C(C)C)C(C)(C)C)ccn1 [PVA-062] | – |
| > 6.70 | CC(C)[C@H](NC(=O)[C@H](C)NC(=O)[C@@H](NC(=O)c1ccc(N2CCN(C)CC2)cc1)C(C)(C)C)C(=O)C(=O)NCc1ccccc1 [PVA-176] | – |
| > 7.70 | CC(C)[C@H](NC(=O)[C@H](C)NC(=O)[C@@H](NC(=O)c1ccccc1)C12C[C@H]3C[C@@H](C1)C[C@@H](C2)C3)C(=O)C(=O)NCc1ccccc1 [PVA-066] | – |
